Measured values as given in US10799479B2, “Self-emulsifying formulations of DIM-related indoles” (BioResponse, L.L.C., priority 2015, dated 2020).

How the values were obtained:
[1] = Single dose human oral bioavailability study; format: in vivo; settings: single oral dose 300 mg DIM, healthy individuals, mean
Experimental: In Part I of the Study, a treatment group was administered a 300 mg dose of DIM from BR-DIM or a 300 mg dose of DIM from crystalline DIM on the first study day, followed by crossover to the other DIM formulation on the second study day, at least 14 days following the first treatment. 3 subjects were given crystalline DIM, 4 subjects were given BR-DIM.
In Part II of the Study, five individuals, four of whom participated in Part I of the Study, were administered a 300 mg dose of DIM from DIM SMEDDS Formulation D. Testing of DIM SMEDDS formula D took place on one day with 5 subjects. The subjects were all healthy, adult volunteers, both male and female, not consuming DIM containing supplements and in a fasting state on study days. […]
The concentrations of DIM in human plasma samples were determined by a validated high-performance liquid chromatography with tandem mass spectrometry (LC-MS/MS) method. […] The analytes were monitored by a Waters Micromass triple quadrupole mass spectrometer (Milford, Mass., USA) using an electrospray probe in the positive ionization mode operating at a cone voltage of 23V for DIM and 13V for the internal standard zileuton. […] The transitions at 129.9>76.8 and 237.1>161.1 were monitored for DIM and zileuton, respectively. […] The lower limit of quantitation (LLOQ) was determined at 10 ng/mL for DIM in human plasma. […]

[2] = Dispersion test in USP dissolution bath (DLS Nicomp, polarized light microscopy); format: physicochemical
Experimental: A dispersion test was performed on the miscible formulations in a USP dissolution bath. 830 μL of miscible mixture was introduced in 250 mL of purified water at 37° C. under agitation with a paddle at 100 rpm. Performance criteria were: ease of emulsification, homogeneity and fineness of the dispersion. The fineness of the dispersion was assayed by dynamic light scattering (DLS, Particle Sizing Systems Nicomp). Photomicrographs were obtained of crystals observed during light microscopic observation following 30 minutes of dispersion.
The dispersion of the formulation in 250 mL of water (equivalent to the FDA glass of water) was followed for observance of the precipitation of DIM after 30 minutes and was checked by polarized light microscopy. Study of Formulation “D” lead to the formation of a fine and turbid emulsion with a crystal formation showing particle size distribution of 283±66 nm (volume). […] The advantageous reduction in crystal size for Formulation N compared to Formulation D is attributed, at least in part, to a contribution from Peppermint Oil and low concentration of Polysorbate 80 (see FIG. 4, A, B, and C).

[3] = DIM solubility in excipients (incremental addition, microscopic observation); format: physicochemical; settings: olive oil or sunflower oil
Experimental: The first step in this development process was the testing of a variety of excipients chosen as potentially active in solubilizing DIM. […] The method involved weighing of approximately 2 grams of each of the liquid excipients into a small vial. Subsequently, a small amount of DIM was added and the mixture was shaken.
The method involved weighing of approximately 2 grams of each of the liquid excipients into a small vial. Subsequently, a small amount of DIM was added and the mixture was shaken. […] Continued testing of acceptable oil solvents for, e.g., nutritional supplement, self-emulsifying formulations using DIM as a representative DIM-related indole active ingredient included testing of the following oils: […]

[4] = Shake-flask determination of maximum solubility of DIM; format: physicochemical; settings: HPLC
Experimental: The solubility was determined as described by Lindenberg et al., 2004, Eur J Pharm Biopharm. 58(2):265-78. […] The vials were incubated at 37±0.5° C. while shaking on a “Polymax 1040” orbital shaker (Heidolph, Schwabach). The samples of the solutions were taken after 4 or 24 hours by pressing the Uniprep® plunger down, diluted as appropriate, and the concentration of DIM was analyzed by HPLC, as described below. The measurements were done in triplicate. The maximum concentration of DIM in aqueous media used in this study was 0.6 μg/ml. […]

[5] = source not stated; cited from earlier work

c1ccc2c(Cc3c[nH]c4ccccc34)c[nH]c2c1 [Crystalline DIM, 3,3′-diindolylmethane]
Cmax [1]: 0.0181 µg/mL | Particle Size Diameter after Dispersion in Water (nm) ([2]; Malvern Mastersizer, DIM as supplied by BioResponse): 3,010^1 nm | DIM Crystal Characteristics In Water Dispersion ([2]; polarized light microscopy after 30 minutes): Large

c1ccc2c(Cc3c[nH]c4ccccc34)c[nH]c2c1 [DIM, 3,3′-diindolylmethane]
ability to dissolve DIM [3]: very low | concentration of DIM in Octanol [4]: 2,300 μg/ml

CC(C)=CCC/C(C)=C/CC/C(C)=C/CC/C(C)=C/CC1=C(C)C(=O)c2ccccc2C1=O [menaquinone-4]
Log P of 2nd API drug [5]: 10-12

Vitamin D
Log P of 2nd API drug [5]: 7.5
